Entries after “also recorded” stand apart in the source; their conditions may differ.
Tests used:
[1] = ELISA: biotinylated heparin binding to laminin peptides; design: key to Interaction with Heparin: ++ indicates high affinities; + indicates medium/low affinities; conditions: for binding to heparin (ELISA): 10 µg/mL laminin peptide coated (legend; method 1 μg/mL), 10 µg/mL biotinylated heparin, vs BSA-coated wells, n = 4; for Interaction with Heparin: summary table
Description: (§1) ELISA tests were performed as described above. In brief, […] recombinant protein, laminin alpha 4 LG domain recombinant protein (R&D Systems), laminin alpha 5 LG domain recombinant protein (LD BioPharma), or laminin peptide (sequences are described in Supplementary Table 1, chemically synthesized by Genscript) in PBS for 2 h at 37 °C. A concentration of 1 μg/mL of BSA served as non-binding protein control. After blocking with 2% BSA PBS-0.05% Tween 20 (PBS-T) solution, 1 μg/mL of the recombinant human proteins (VEGF-A121, VEGF-A165, PlGF-1, PlGF-2, PDGF-BB, or FGF-2) or 10 μg/mL of biotinylated heparin (Sigma-Aldrich) were added. Bound GF was detected with biotinylated antibodies for human VEGF-A, PlGF, PDGF-BB (R&D Systems, Catalog No. DY220, 1:180 dilution), or FGF-2 (R&D Systems). The antibodies were detected by streptavidin-HRP (R&D Systems).

VEGF-A165 = test: ELISA: VEGF-A165 binding to laminin LG domain / laminin peptide; design: species or system human; conditions: 10 µg/mL laminin peptide coated (legend; method 1 μg/mL); 1 μg/mL GF; vs BSA-coated wells; n = 4
Description: as §1

PlGF-2 [2] = test: ELISA: PlGF-2 binding to laminin LG domain / laminin peptide; design: species or system human; conditions: 10 µg/mL laminin peptide coated (legend; method 1 μg/mL); 1 μg/mL GF; vs BSA-coated wells; n = 4
Description: (§2) ELISA tests were performed as described above. In brief, ELISA plates were coated with 1 μg/mL of laminin alpha 3 LG domain recombinant protein, laminin alpha 4 LG domain recombinant protein (R&D Systems), laminin alpha 5 LG domain recombinant protein (LD BioPharma), or laminin peptide (sequences are described in Supplementary Table 1, chemically synthesized by Genscript) in PBS for 2 h at 37 °C. A concentration of 1 μg/mL of BSA served as non-binding protein control. After blocking with 2% BSA PBS-0.05% Tween 20 (PBS-T) solution, 1 μg/mL of the recombinant human proteins (VEGF-A121, VEGF-A165, PlGF-1, PlGF-2, PDGF-BB, or FGF-2) or 10 μg/mL of biotinylated heparin (Sigma-Aldrich) were added. Bound GF was detected with biotinylated antibodies for human VEGF-A, PlGF, PDGF-BB (R&D Systems, Catalog No. DY220, 1:180 dilution), or FGF-2 (R&D Systems). The antibodies were detected by streptavidin-HRP (R&D Systems).

PDGF-BB [3] = test: ELISA: PDGF-BB binding to laminin LG domain / laminin peptide; design: species or system human; conditions: 10 µg/mL laminin peptide coated (legend; method 1 μg/mL); 1 μg/mL GF; vs BSA-coated wells; n = 4
Description: as §2

FGF-2 = test: ELISA: FGF-2 binding to laminin LG domain / laminin peptide; design: species or system human; conditions: 10 µg/mL laminin peptide coated (legend; method 1 μg/mL); 1 μg/mL GF; vs BSA-coated wells; n = 4
Description: as §2

GF [4] = test: ELISA: GF binding to laminin peptides, stated for the tested GFs together; design: species or system human; key: ++ indicates high affinities; + indicates medium/low affinities; conditions: summary table
Description: as §2

[5] = system: recombinant human syndecan-1, syndecan-2, syndecan-3, and syndecan-4; test: ELISA: syndecan binding to laminin peptides; design: key to Interaction with Syndecan: ++ indicates high affinities; + indicates medium/low affinities; conditions: for binding to syndecans 1–4 (ELISA): 10 µg/mL laminin peptide coated (legend; method 1 μg/mL), 1 μg/mL histidine-tagged syndecan, vs BSA-coated wells, n = 8; for Interaction with Syndecan: summary table
Description: ELISA tests were performed as described above. […] A concentration of 1 μg/mL of BSA served as non-binding protein control. After blocking with 2% BSA PBS-T solution, 1 μg/mL of the recombinant human syndecan-1, syndecan-2, syndecan-3, and syndecan-4 (all syndecan proteins are histidine-tagged; SinoBiological) were added. Bound GF was detected with anti-histidine tag antibody (BioLegend, Catalog No. 562504, 1:1000 dilution).

human lung fibroblasts = test: Cell adhesion assay, fibroblasts; type: cell-based; design: key to Cell adhesion Fibroblast: ++ indicates high affinities; + indicates medium/low affinities; conditions: for Cell adhesion Fibroblast: summary table; for fibroblast attachment on peptide-coated surfaces: without EDTA, 1 μg/mL peptide coated, 3000 cells/well, 30 min, 37 °C, FGM-2, 1% FBS, CyQUANT, vs BSA, n = 10
Description: (§3) A total of 96-well plates (non-tissue culture treated, Greiner Bio-One) were pre-coated with 1 μg/mL with laminin HBD peptides in PBS for 2 h at 37 °C, followed by blocking with 2% BSA PBS for 1 h at RT. Cell adhesion assays were performed using human lung fibroblasts (Lonza) in FGM-2 medium (Lonza) or human umbilical vein endothelial cells (HUVEC; Lonza) in EGM-2 medium (Lonza) supplemented with 1% fetal bovine serum (FBS) and 100 µg/mL VEGF-A165, with or without 5 mM EDTA (Sigma-Aldrich). Cells were plated at 3000 cells/well on laminin peptide pre-coated plates and incubated for 30 min at 37 °C, 5% CO2. Then, the medium was removed, and wells were quickly washed three times with PBS. Cell numbers were quantified using a CyQUANT assay, according to the manufacturer’s instructions (Invitrogen). All cell lines were checked for mycoplasma contamination and used in passages from 5 to 8.

[6] = system: human umbilical vein endothelial cells (HUVEC); test: Cell adhesion assay, HUVEC; type: cell-based; design: key to Cell adhesion HUVEC: ++ indicates high affinities; + indicates medium/low affinities
Description: as §3, with “Cell adhesion assays were performed using human lung fibroblasts (Lonza) in FGM-2 medium (Lonza) or human umbilical vein endothelial cells (HUVEC; Lonza) in EGM-2 medium (Lonza) supplemented with 1% fetal bovine serum (FBS) and 100 µg/mL VEGF-A165, with or without 5 mM EDTA (Sigma-Aldrich).” left out

HUVEC cells = test: Migration assay (transwell); type: cell-based, human; conditions: 0.1 μM peptide, in the presence and absence of 30 ng/mL VEGF-A165; 6 h; n = 4
Description: A QCM 24-Well Colorimetric Cell Migration Assay Kit was used to perform migration assay. Both sides of inserts were coated with 0.1 μM of bovine collagen I (C4243, Sigma-Aldrich) for 1 h at 37 °C. Then, the inserts were washed with water, dried in a laminar flow cabinet, and disposed on 24-well cell culture plate covers. Solutions containing 30 ng/mL of VEGF-A165 preincubated with or without 0.1 μM of LAMA3_3043–3067 peptide in a medium (MCDB-131, 0.05% BSA) were added to the bottom side of the transwell (500 μL/well). Directly thereafter, HUVEC cells (Lonza) in a medium containing 0.05% BSA (300 μL/transwell, 4 × 10^4 cells/transwell) were added to the transwell upper parts. After 6 h, migrated cells were stained and absorbance at 560 nm was measured according to the manufacturer’s instructions.

PlGF-2 [7] = test: SPR: laminin-521 against PlGF-2; type: binding, human; conditions: laminin-521 immobilized (~2000 RU) on C1 chip, GF flown over, Langmuir fit
Description: (§4) SPR measurements were made with a Biacore 3000 SPR system (GE Healthcare). Laminin-521 or laminin LAMA3_2928–3150 was immobilized via amine coupling on a C1 chip (GE Healthcare) for ~2000 or ~1000 resonance units (RU), respectively, according to the manufacturer’s instructions. VEGF-A165, PDGF-BB, or PlGF-2 was flown at increasing concentrations in the running buffer (0.01 M HEPES, pH 7.4, 0.15 M NaCl, and 0.005% v/v surfactant P20) at 20 μL/min. The sensor chip was regenerated with 50 mM NaOH for every cycle. Specific bindings of GFs to laminin were calculated by comparison to a non-functionalized channel used as a reference. Experimental results were fitted with Langmuir binding kinetics using BIAevaluation software (GE Healthcare).

PDGF-BB [8] = test: SPR: laminin-521 against PDGF-BB; type: binding, human; conditions: laminin-521 immobilized (~2000 RU) on C1 chip, GF flown over, Langmuir fit
Description: as §4

GF [9] = test: ELISA: GF binding to laminin peptides, stated for the tested GFs together; design: species or system human; conditions: 10 µg/mL laminin peptide coated, 1 μg/mL GF, n = 4
[10] = system: GF (VEGF-A165, PlGF-2, FGF-2) binding to laminin; test: Inhibition of laminin–GF binding by heparin (ELISA); design: species or system human; conditions: 10 µM heparin; 10 µg/mL laminin coated; 1 μg/mL VEGF-A165, PlGF-2 or FGF-2; n = 4
Description: ELISA plates (med-binding) were coated with 10 μg/mL laminin isoforms (–111, –211, –221, –411, –421, –511, and –521) in PBS for 2 h at 37 °C. Then, wells were blocked with 2% BSA-containing PBS-T and further incubated with 1 μg/mL each of VEGF-A165, PlGF-2, or FGF-2 for 60 min at RT with 10 μM heparin. Next, the wells were incubated with biotinylated anti-VEGF (R&D Systems, Catalog No. DY293B, 1:60 dilution), anti-PlGF (R&D Systems, Catalog No. DY264, 1:180 dilution), or anti-FGF-2 (R&D Systems, Catalog No. DY233, 1:60 dilution) antibodies. The antibodies were detected by streptavidin-HRP (R&D Systems).

Row | binding to heparin (ELISA) [1] | Interaction with Heparin [1] | binding to VEGF-A165 (ELISA), peptides (VEGF-A165) | binding to PlGF-2 (ELISA), peptides (PlGF-2 [2]) | binding to PDGF-BB (ELISA), peptides (PDGF-BB [3]) | binding to FGF-2 (ELISA), peptides (FGF-2) | Interaction with GF (GF [4]) | binding to syndecans 1–4 (ELISA) [5] | Interaction with Syndecan [5] | Substance | Cell adhesion Fibroblast (human lung fibroblasts) | fibroblast attachment on peptide-coated surfaces (human lung fibroblasts) | binding to the tested GFs (ELISA) (GF [9]) | further results
1 | bound to heparin | ++ | bound | bound | bound | bound | ++ | significant binding | ++ | RQRSRPGRWHKVSVRWEKNR [LAMA5_3417–3436, chemically synthesized human laminin LAMA5 LG4 peptide, 20 aa] | + | enhancement of fibroblast attachment |  | 
2 | bound to heparin | ++ | bound | bound | bound | bound | ++ | significant binding | ++ | RLVFALGTDGKKLRIKSKEKCNDGK [LAMA3_3043–3067, chemically synthesized human laminin LAMA3 LG4 HBD peptide, 25 aa] | ++ | enhancement of fibroblast attachment |  | HUVEC attachment in the presence of EDTA ([6]; 5 mM EDTA, 1 μg/mL peptide coated, 3000 cells/well, 30 min, 37 °C, CyQUANT, n = 10): even in the presence of EDTA; Cell adhesion HUVEC ([6]; summary table): ++; HUVEC attachment on peptide-coated surfaces ([6]; without EDTA, 1 μg/mL peptide coated, 3000 cells/well, 30 min, 37 °C, 100 ng/mL VEGF-A165, 1% FBS, CyQUANT, n = 10): promoted HUVEC attachment; degree of migration of HUVEC cells, peptide (HUVEC cells): did not increase the degree of cell migration
3 |  |  |  |  |  |  |  |  |  | laminin-521: recombinant human full-length laminin isoform (BioLamina) |  |  |  | Kd (PlGF-2 [7]): 0.0129 µM; Kd (PDGF-BB [8]): 0.0242 µM
4 | did not bind to heparin |  |  |  |  |  |  | weak binding | + | ARKASRRSRQPARH [LAMA5_3312–3325, chemically synthesized human laminin LAMA5 linker peptide, 14 aa, subdomain of LAMA5_3300–3330] |  |  | did not show particular binding to any tested GF | 
5 |  |  |  |  |  |  |  |  |  | heparin |  |  |  | inhibition of GF binding to laminin by excess heparin [10]: inhibited

Row | Substance | binding to heparin (ELISA) [1] | Interaction with Heparin [1] | binding to VEGF-A165 (ELISA), peptides (VEGF-A165) | binding to PlGF-2 (ELISA), peptides (PlGF-2 [2]) | binding to PDGF-BB (ELISA), peptides (PDGF-BB [3]) | binding to FGF-2 (ELISA), peptides (FGF-2) | Interaction with GF (GF [4]) | binding to syndecans 1–4 (ELISA) [5] | Interaction with Syndecan [5] | Cell adhesion Fibroblast (human lung fibroblasts) | fibroblast attachment on peptide-coated surfaces (human lung fibroblasts) | binding to the tested GFs (ELISA) (GF [9]) | further results
6 | TLPDVGLELEVR [LAMA5_3539–3550, chemically synthesized human laminin LAMA5 LG5 peptide, 12 aa] | did not show binding to heparin; also recorded: do not show heparin binding |  |  |  |  |  | + | did not show binding |  |  |  | significantly bound to all tested GFs | 

Reference: article PMC5986797, “Laminin heparin-binding peptides bind to several growth factors and enhance diabetic wound healing” (Nature Communications, 2018)
